In patent US20070238727A1, “5-Substituted 1-Phenyl-1,5-Dihydro-Pyrido[3,2-B]Indol-2-Ones and Analogs as Anti-Virals” (Tibotec BVBA, priority 2004, published 2007):

Tested on: HIV
Assay: Cellular assay: anti-viral activity in HIV-infected MT4 cells (MTT)
Assay type: cell-based
Conditions: Human immunodeficiency virus 1, 120 h, five days incubation, negative logarithm of EC50
Protocol: Compounds of the present invention were examined for anti-viral activity in a cellular assay, which was performed according to the following procedure.
HIV- or mock-infected MT4 cells were incubated for five days in the presence of various concentrations of the inhibitor. At the end of the incubation period, the replicating virus in the control cultures has killed all HIV-infected cells in the absence of any inhibitor. Cell viability was determined by measuring the concentration of MTT, a yellow, water soluble tetrazolium dye that is converted to a purple, water insoluble formazan in the mitochondria of living cells only. Upon solubilization of the resulting formazan crystals with isopropanol, the absorbance of the solution was monitored at 540 nm. The values correlate directly to the number of living cells remaining in the culture at the completion of the five day incubation. The inhibitory activity of the compound was monitored on the virus-infected cells and was expressed as EC50 and EC90. These values represent the amount of the compound required to protect 50% and 90%, respectively, of the cells from the cytopathogenic effect of the virus. The toxicity of the compound was measured on the mock-infected cells and was expressed as CC50, which represents the concentration of compound required to inhibit the growth of the cells by 50%. The selectivity index (SI) (ratio CC50/EC50) is an indication of the selectivity of the anti-HIV activity of the inhibitor. Wherever results are reported as e.g. pEC50 or pCC50 values, the result is expressed as the negative logarithm of the result expressed as EC50 or CC50 respectively.

SMILES	EC50
COCCOCCOCCn1c2ccccc2c2c1cc(C#N)c(=O)n2-c1ccc([N+](=O)[O-])cc1 [Compound 11]	1580 nM
CC1CCCN(CCn2c3ccccc3c3c2cc(C#N)c(=O)n3-c2ccc([N+](=O)[O-])cc2)C1 (stereo not drawn) [Compound 31]	1000 nM
N#Cc1cc2c(c3ccccc3n2CC(O)CN2CCSCC2)n(-c2ccc([N+](=O)[O-])cc2)c1=O (stereo not drawn) [Compound 9]	794 nM
CC1CN(CCn2c3ccccc3c3c2cc(C#N)c(=O)n3-c2ccc([N+](=O)[O-])cc2)CC(C)O1 (stereo not drawn) [Compound 40]	1000 nM
N#Cc1cc2c(c3ccccc3n2CC(O)CN2CCCC2)n(-c2ccc([N+](=O)[O-])cc2)c1=O (stereo not drawn) [Compound 2, 5-(2-Hydroxy-3-pyrrolidin-1-yl-propyl)-1-(4-nitro-phenyl)-2-oxo-2,5-dihydro-1H-pyrido[3,2-b]indole-3-carbonitrile]	251 nM
CC(=O)N1CCN(CCCn2c3ccccc3c3c2cc(C#N)c(=O)n3-c2ccc([N+](=O)[O-])cc2)CC1 [Compound 35]	2510 nM
N#Cc1cc2oc3ccccc3c2n(-c2ccc([N+](=O)[O-])cc2)c1=O [Compound 42, 1-(4-Nitro-phenyl)-2-oxo-1,2-dihydro-benzo[4,5]furo[3,2-b]pyridine-3-carbonitrile]	794 nM

Other lines, results leading:

EC50	SMILES
316 nM	COCCOCCn1c2ccccc2c2c1cc(C#N)c(=O)n2-c1ccc([N+](=O)[O-])cc1 [Compound 4, 5-[2-(2-Methoxy-ethoxy)-ethyl]-1-(4-nitro-phenyl)-2-oxo-2,5-dihydro-1H-pyrido-[3,2-b]indole-3-carbonitrile]
15800 nM	COC(Cn1c2ccccc2c2c1cc(C#N)c(=O)n2-c1ccc([N+](=O)[O-])cc1)C[N+](C)(C)C (stereo not drawn) [Compound 13]
501 nM	CC(=O)OC(CN1CCCC1)Cn1c2ccccc2c2c1cc(C#N)c(=O)n2-c1ccc([N+](=O)[O-])cc1 (stereo not drawn) [Compound 21]
15800 nM	N#Cc1cc2c(c3ccccc3n2CCCONC(=N)N)n(-c2ccc([N+](=O)[O-])cc2)c1=O [Compound 25]

Target: T1, HIV reverse transcriptase (Human immunodeficiency virus type 1 group M subtype B, UniProt P04585)
T1 construct: 5 μl HIV RT enzyme solution at a final enzyme activity of 15 mU per 50 μl reaction; purchased Amersham Life Sciences TRK 1022
Assay: In vitro inhibition of HIV reverse transcriptase (kit TRK 1022, 3H-TTP)
Assay type: biochemical
Conditions: HIV RT enzyme, 4 hours at 37° C., no conversion to active metabolite needed
Protocol: The assay was run using kit TRK 1022 (Amersham Life Sciences) according to the manufacturer's instructions with slight modifications. Test compounds were diluted in steps of 1/4 in 100% DMSO and subsequently transferred to Medium A (1/50 dilution; medium A: RPMI 1640+10% FetalClone 1+Gentamycin 20 mg/L). 25 μl of compound (in 2% DMSO in Medium A) or 25 μl of 2% DMSO in medium A was added to wells. To each well was added 25.5 μl master mix (master mix: 5 μl primer/template beads, 10 μl assay buffer, 0.5 μl tracer (3H-TTP), 5 μl HIV RT enzyme solution at a final enzyme activity of 15 mU per 50 μl reaction, 5 μl medium A). The plates were sealed, marked as radioactive and incubated during 4 hours at 37° C. Subsequently, 100 μl stop solution was added to each well (except R1). The radioactivity was counted in a TopCount.

SMILES	inhibition of HIV reverse transcriptase in vitro
N#Cc1cc2c(c3ccccc3n2CC(O)CN2CCCC2)n(-c2ccc([N+](=O)[O-])cc2)c1=O (stereo not drawn) [Compound 2, 5-(2-Hydroxy-3-pyrrolidin-1-yl-propyl)-1-(4-nitro-phenyl)-2-oxo-2,5-dihydro-1H-pyrido[3,2-b]indole-3-carbonitrile]	inhibit IV reverse transcriptase in vitro
